The NIST ThermoML archive (doi:10.1016/j.jct.2016.01.016)
Numbers after ± are expanded uncertainties.

Experiments:
[1] = Molar enthalpy of transition or fusion; settings: DSC
[2] = for mass density: 101.33 kPa

NC(=O)CN1CCCC1=O [2-oxo-1-pyrrolidineacetamide]
Settings | Molar enthalpy of transition or fusion, Crystal 1 [kcal/mol] | Molar enthalpy of transition or fusion, Metastable crystal [kcal/mol] | Triple point temperature, Crystal 1, DSC [K] | Triple point temperature, Crystal 2, X-ray diffraction [K]
[1] | 6.35 ± 0.203 | 0.843 ± 0.208 | – | –
[2] | – | – | 422.95 ± 5.1 | 370.15 ± 6

[2]
Settings | Triple point temperature [K] | mass density [kg/m3] | molar volume [m3/mol]
300 K, Crystal 2, X-ray diffraction | – | 1373 ± 2 | 0.0001036 ± 4.9e-07
310 K, Crystal 2, X-ray diffraction | – | – | 0.0001031 ± 4.9e-07
320 K, Crystal 2, X-ray diffraction | – | – | 0.0001039 ± 4.9e-07
330 K, Crystal 2, X-ray diffraction | – | – | 0.0001036 ± 4.9e-07
340 K, Crystal 2, X-ray diffraction | – | – | 0.0001042 ± 4.9e-07
350 K, Crystal 2, X-ray diffraction | – | – | 0.0001042 ± 4.9e-07
360 K, Crystal 2, X-ray diffraction | – | – | 0.0001047 ± 4.9e-07
370 K, Crystal 1, X-ray diffraction | – | – | 0.0001104 ± 4.9e-07
370 K, Crystal 2, X-ray diffraction | – | – | 0.0001049 ± 4.9e-07
375 K, Crystal 1, X-ray diffraction | – | – | 0.0001105 ± 4.9e-07
380 K, Crystal 1, X-ray diffraction | – | – | 0.0001106 ± 4.9e-07
385 K, Crystal 1, X-ray diffraction | – | – | 0.0001108 ± 4.9e-07
390 K, Crystal 1, X-ray diffraction | – | – | 0.0001108 ± 4.9e-07
395 K, Crystal 1, X-ray diffraction | – | – | 0.000111 ± 4.9e-07
400 K, Crystal 1, X-ray diffraction | – | 1281 ± 2 | 0.000111 ± 4.9e-07
405 K, Crystal 1, X-ray diffraction | – | – | 0.0001112 ± 4.9e-07
410 K, Crystal 1, X-ray diffraction | – | – | 0.0001112 ± 4.9e-07
Metastable crystal, DSC | 365.05 ± 5.1 | – | –
Metastable crystal, X-ray diffraction | 360.15 ± 6 | – | –

[2]
Settings | mass density [kg/m3] | molar volume [m3/mol]
300 K, Metastable crystal, X-ray diffraction | 1365 ± 2 | 0.0001042 ± 4.9e-07
310 K, Metastable crystal, X-ray diffraction | – | 0.0001044 ± 4.9e-07
320 K, Metastable crystal, X-ray diffraction | – | 0.0001045 ± 4.9e-07
330 K, Metastable crystal, X-ray diffraction | – | 0.0001049 ± 4.9e-07
340 K, Metastable crystal, X-ray diffraction | – | 0.0001051 ± 4.9e-07
350 K, Metastable crystal, X-ray diffraction | – | 0.0001054 ± 4.9e-07
355 K, Metastable crystal, X-ray diffraction | – | 0.0001054 ± 4.9e-07
360 K, Metastable crystal, X-ray diffraction | – | 0.0001055 ± 4.9e-07
423 K, Liquid, Vibrating tube method | – | 0.0001228 ± 4.4e-07
428 K, Liquid, Vibrating tube method | – | 0.0001232 ± 4.4e-07
433 K, Liquid, Vibrating tube method | – | 0.0001235 ± 4.4e-07
438 K, Liquid, Vibrating tube method | – | 0.0001239 ± 4.4e-07
443 K, Liquid, Vibrating tube method | – | 0.0001241 ± 4.4e-07
448 K, Liquid, Vibrating tube method | – | 0.0001245 ± 4.4e-07
453 K, Liquid, Vibrating tube method | – | 0.0001248 ± 4.4e-07
458 K, Liquid, Vibrating tube method | – | 0.0001252 ± 4.4e-07
463 K, Liquid, Vibrating tube method | – | 0.0001255 ± 4.4e-07
468 K, Liquid, Vibrating tube method | – | 0.0001259 ± 4.4e-07
473 K, Liquid, Vibrating tube method | – | 0.0001262 ± 4.4e-07
